Assay results published in patent publication US9254290B2, “Method for screening diabetes treating agent” (GWANGJU INSTITUTE OF SCIENCE AND TECHNOLOGY, priority 2010, dated 2016).
“Also recorded” adds a separate entry of the source.

How the values were obtained:
3T3-L1 adipocytes [1] = experiment: 6-NBDG uptake screening in 3T3-L1 adipocytes, 96-well, fluorescent microplate reader; format: cell-based, murine; settings: for NBDG uptake in adipocytes on re-testing of purified compounds: 250 nM-20 μM, compared with insulin and zinc sulfate; for effect of GLUT inhibitors (4,6-EDG, cytochalasin B) on compound-induced NBDG uptake: with 4,6-EDG (50 mM) or cytochalasin B; for effect on insulin-stimulated 6-NBDG uptake: 3 h pre-treatment with inhibitors
Experimental: 3T3-L1 murine fibroblasts were maintained in proliferation media, consisting of DMEM supplemented with 10% FBS, 50 units/mL penicillin and 50 μg/mL streptomycin. 3T3-L1 fibroblasts were induced to differentiate into adipocytes as follows: 48 h postconfluent cells (designated day 0) were cultured in DMEM supplemented 10% FBS, 0.5 mM 3-isobutyl-1-methyl-xanthine, 2 μg/ml dexamethasone, 1 μg/ml insulin, 50 units/mL penicillin and 50 μg/mL streptomycin for 2 days. Every 2 days thereafter, the cells were incubated with fresh DMEM supplemented with 10% FBS and 1 μg/ml insulin. 3T3-L1 adipocytes were used for experiments 8 days after the induction of differentiation.
(§1) Three cell lines were chosen to test if NBDG can be used to detect insulin-stimulated glucose uptake in a 96 well plate culture format, which is more suitable for cell-based screening to identify novel insulin mimetic compounds. The cell lines chosen were Huh7 hepatocytes, C2C12 myoblasts and 3T3-L1 pre-adipocytes, which represent the major body tissue types that are sensitive to the action of insulin (liver, muscle and fat). 10^4 cells/well were seeded in a black, 96 well tissue culture plate (BD Falcon, NJ, USA). C2C12 myoblasts and 3T3-L1 adipocytes were induced to undergo differentiation into myotubes and adipocytes, respectively, to compare the NDBG signal in proliferating and differentiated cells. NBDG uptake was measured following treatment with 10 nM or 100 nM insulin, and 1 μM or 10 μM rosiglitazone (an insulin-sensitizing agent), using a fluorescent microplate reader (SpectraMAX GeminiXS and SoftMax Pro V5 software, Molecular Devices, CA, USA). Cells were cultured in serum-free low glucose culture media for 3 h before the addition of insulin.
To test the NBDG-based screening system, a combinatorial chemical library of 576 triazine-based small molecules was screened at a concentration of 5 μM. The combinatorial library was provided by Professor Young-Tae Chang, Department of Chemistry, National University of Singapore.
To test if this screening protocol could detect new insulin mimetic compounds, a combinatorial chemical library of 576 triazine-based small molecules was screened.

3T3-L1 adipocytes [2] = experiment: Detection of apoptosis (Apo-TRACE staining, microplate quantification); format: cell-based, murine; settings: 5 μM, 24 hrs
Experimental: 3T3-L1 pre-adipocytes were cultured to confluence in 24-well plates and induced to differentiate into adipocytes. The induction of apoptosis was detected using the Apo-TRACE™ Apoptotic Cell Staining Kit (Sigma-Aldrich, SL, USA), which employs a fluorescent compound that responds to alterations in plasma membrane potential and phospholipid scrambling, which are hallmarks of apoptotic cells. Apoptotic cells were visualized by microscopy under UV illumination (Olympus IX81, Japan) equipped with MetaMorph 7.5 image capture software (Molecular Devices, CA, USA)). Images were processed with Photoshop CS4 software (Adobe Systems Incorporated, CA, USA). Apoptosis was quantified by fluorescent microplate reader analysis of cell lysate.

3T3-L1 adipocytes [3] = experiment: Necrosis / cell death by trypan blue exclusion; format: cell-based; settings: 24 h after treatment
Experimental: Necrosis was detected by the ability of cells to exclude the dye, trypan blue. 3T3-L1 adipocytes were cultured to confluence in 6-well plates and treated with drug. Adipocytes were then harvested by trpsinization and resuspended in 1 mL PBS. A 50 μL aliquot was taken and stained with an equal volume of 0.4% trypan blue solution (Sigma, SL, USA). Cells that could not exclude dye were classified as necrotic and quantified using a hemocytometer.

3T3-L1 adipocytes [4] = experiment: Epinephrine-stimulated free fatty acid release assay; format: cell-based, murine; settings: for inhibition of epinephrine-stimulated free fatty acid release: 5 μM compound, 10 μM epinephrine
Experimental: Epinephrine-stimulated free fatty acid (FFA) release from adipocytes was measured using the Free Fatty Acid Quantification Kit (Biovision, CA, USA), following the method previously described^13. Confluent 3T3-L1 adipocytes in a 24 well plate were cultured for 3 h in serum-free culture media. Adipocytes were then treated with 10 μM epinephrine dissolved in saline to induce FFA […] release. Drug of interest was added 10 min before the addition of epinephrine. Cell lysate was collected and 50 μL of the organic phase was used for assay. Palmitic acid was used to generate the standard curve.

3T3-L1 adipocytes [5] = experiment: Commercial enzyme-based glucose content assay (Biovision); format: cell-based, murine; settings: tested in triplicate
Experimental: For comparison and validation of our new screening based on NBDG uptake, we used a commercial, enzyme-based glucose assay provided by Biovision Inc., CA, USA. 3T3-L1 adipocytes were seeded at 5×10^4 cells/well in a 96-well culture plate. 24 h later, culture media was changed and adipocytes were cultured in serum-free low glucose DMEM for 3 h prior to drug treatment. Cells were lysed with 100 μL Cell Lytic M (Sigma-Aldrich, SL, USA) and 50 μL lysate was used for assay.

[6] = system: human aortic endothelial cells (HAEC); experiment: Monocyte-endothelial cell adhesion assay (THP-1 monocytes, hyperglycemia); format: cell-based; settings: 30 mM glucose; 5 μM compound for 3 hrs before THP-1 monocytes
Experimental: (§2) HAEC were exposed to hyperglycemia (30 mM glucose) for days and treated with 5 μM compounds AP-III-a4 or AP-I-h7 or 100 nM insulin for 3 hrs prior to addition of THP-1 monocytes. […] Data is representative of three independent experiments. 5 mM glucose=normoglycemia; 30 mM glucose=hyperglycemia (5 days treatment); AP-III-a4=hyperglycemia (5 days treatment) and 24 hrs treatment with 5 μM AP-III-a4; AP-I-h7=hyperglycemia (5 days treatment) and 24 hrs treatment with […]; MLB=hyperglycemia (5 days treatment) and 48 hrs treatment with 50 μM magnesium lithospermate B.
Human aortic endothelial cells were supplied by Cambrex (NJ, USA) and cultured in EBM-2 growth media supplemented with the EGM-2 bullet kit. […]
The adhesion of mouse inflammatory peritoneal (IP) exudate macrophages to endothelial cell monlayers was carried out as previously described.^14 Briefly, endothelial cells were cultured to confluence in 6-well culture plates and treated with drug with or without high glucose (30 mM for 48 h) culture media. […] The unbound cells were washed three times with serum-free RPMI-1640 medium, and the total number of adherent cells was counted in four randomly selected optical fields per well (100× magnification; Olympus microscope CKX41, Japan; microscopic images were captured with a DigiEye 330 digital camera (Dewinter, India) and Biowizard 4.3 software (Dewinter, India)). […]

VCAM-1 [7] = experiment: VCAM-1 expression in HAEC exposed to hyperglycemia (Western blot); format: cell-based, human; settings: 30 mM glucose 5 days; 24 hrs treatment with 5 μM
Experimental: as §2
Human aortic endothelial cells were supplied by Cambrex (NJ, USA) and cultured in EBM-2 growth media supplemented with the EGM-2 bullet kit. THP-1 human monocytic cells were cultured in RPMI-1640 medium supplemented with […] 2-mercaptoethanol, 10% fetal bovine serum and antibiotics. Cells were cultured in growth media containing 5 mM glucose for the normoglycemia condition or 30 mM glucose for the hyperglycemia condition.
Proteins were separated by 10% SDS-PAGE and transferred onto […] nitrocellulose (Bio-Rad, CA, USA). Densitometry was carried out using TINA 2.10e software (Catholic University Medical College (GmBH), Germany).

[8] = system: insulin resistant 3T3-L1 adipocytes; experiment: NBDG uptake in adipocytes rendered insulin resistant with TNF-α; format: cell-based, murine
Excerpt: (§3) Error=SD. *=P<0.05 compared to 3T3-L1 adipocytes in the same treatment group. […] Data is representative of three independent experiments.

[9] = system: 3T3-L1 adipocytes and pre-adipocytes; experiment: Fluorescent microscope analysis of NBDG uptake in mixed cultures of adipocytes and pre-adipocytes; format: cell-based, murine; settings: 10 μM compound; adipocytes vs pre-adipocytes (fibroblast-like)
Excerpt: as §3

3T3-L1 adipocytes [10] = experiment: 2-NBDG uptake in insulin-responsive cell lines, 96-well; format: cell-based, murine; settings: 10 nM or 100 nM insulin, 30 min; compared to Huh7, C2C12 myoblasts/myotubes, 3T3-L1 pre-adipocytes
Experimental: as §1

[11] = system: human aortic endothelial cells (HAEC); settings: cited from earlier work
VCAM-1 [12] = settings: cited from earlier work

Compound: NCCOCCOCCNC(=O)Cc1ccc(Nc2nc(NCC3CCCCC3)nc(N3CCCCC3)n2)cc1 [AP-IV-e4]
- NBDG uptake in adipocytes on re-testing of purified compounds (3T3-L1 adipocytes [1]): can increase NBDG uptake; also recorded: promote NBDG uptake in adipocytes
- effect of GLUT inhibitors (4,6-EDG, cytochalasin B) on compound-induced NBDG uptake (3T3-L1 adipocytes [1]): sensitive to exo- and endofacial inhibitors of GLUT
- induction of apoptosis (3T3-L1 adipocytes [2]): induced apoptosis
- induction of cell death (trypan blue exclusion) (3T3-L1 adipocytes [3]): induced cell death

Compound: NCCOCCOCCNC(=O)Cc1ccc(Nc2nc(NCc3ccc(F)cc3)nc(NCC3CCCCC3)n2)cc1 [AP-III-a4]
- NBDG uptake in adipocytes on re-testing of purified compounds (3T3-L1 adipocytes [1]): can increase NBDG uptake; also recorded: promote NBDG uptake in adipocytes
- effect of GLUT inhibitors (4,6-EDG, cytochalasin B) on compound-induced NBDG uptake (3T3-L1 adipocytes [1]): sensitive to exo- and endofacial inhibitors of GLUT
- induction of apoptosis (3T3-L1 adipocytes [2]): did not induce apoptosis
- concentration required to produce insulin mimetic activity in adipocytes (3T3-L1 adipocytes [4]): 5 µM
- inhibition of epinephrine-stimulated free fatty acid release (3T3-L1 adipocytes [4]): could inhibit epinephrine-stimulated free fatty acid release; also recorded: inhibit 10 μM epinephrine-mediated FFA release
- cellular glucose content (3T3-L1 adipocytes [5]): induced an increase in cellular glucose content
- monocyte adhesion in hyperglycemic conditions [6]: decreased monocyte adhesion; also recorded: reduced monocyte adhesion
- VCAM-1 expression / upregulation in hyperglycemic conditions (VCAM-1 [7]): decreased VCAM-1 upregulation; also recorded: reduced the expression of VCAM-1
- sensitivity of compound-induced NBDG uptake to insulin resistance [8]: sensitive to the induction of insulin resistance
- cell-type preference of NBDG uptake [9]: preferentially taken up in the adipocytes; also recorded: preferentially occurs in adipocytes rather than fibroblasts

Compound: insulin: Insulin from bovine pancreas
- sensitivity of 6-NBDG uptake in adipocytes to the agent (3T3-L1 adipocytes [1]; 1 μM rosiglitazone, 100 nM insulin): sensitive
- 2-NBDG uptake after insulin treatment (3T3-L1 adipocytes [10]): largest increase in 2-NBDG uptake
- cellular glucose content (3T3-L1 adipocytes [5]): induced an increase in cellular glucose content
- effect on monocyte-endothelial adhesion (literature) [11]: no inhibitory effect on monocyte-endothelial adhesion
- effect on adhesion molecule expression in endothelial cells (literature) (VCAM-1 [12]): not to inhibit adhesion molecule expression

Compound: CCCCNc1nc(NCCc2ccccc2)nc(Nc2ccc(CC(=O)NCCOCCOCCN)cc2)n1 [AP-I-h7]
- NBDG uptake in adipocytes on re-testing of purified compounds (3T3-L1 adipocytes [1]): can increase NBDG uptake; also recorded: promote NBDG uptake in adipocytes
- effect of GLUT inhibitors (4,6-EDG, cytochalasin B) on compound-induced NBDG uptake (3T3-L1 adipocytes [1]): sensitive to exo- and endofacial inhibitors of GLUT
- induction of apoptosis (3T3-L1 adipocytes [2]): did not induce apoptosis
- concentration required to produce insulin mimetic activity in adipocytes (3T3-L1 adipocytes [4]): 5 µM
- inhibition of epinephrine-stimulated free fatty acid release (3T3-L1 adipocytes [4]): could inhibit epinephrine-stimulated free fatty acid release; also recorded: inhibit 10 μM epinephrine-mediated FFA release
- cellular glucose content (3T3-L1 adipocytes [5]): induced an increase in cellular glucose content
- monocyte adhesion in hyperglycemic conditions [6]: decreased monocyte adhesion; also recorded: reduced monocyte adhesion
- VCAM-1 expression / upregulation in hyperglycemic conditions (VCAM-1 [7]): decreased VCAM-1 upregulation; also recorded: reduced the expression of VCAM-1
- sensitivity of compound-induced NBDG uptake to insulin resistance [8]: sensitive to the induction of insulin resistance
- cell-type preference of NBDG uptake [9]: preferentially taken up in the adipocytes; also recorded: preferentially occurs in adipocytes rather than fibroblasts

Compound: CCCCNc1nc(Nc2ccc(CC(=O)NCCOCCOCCN)cc2)nc(N2CCCCC2)n1 [AP-IV-e3]
- NBDG uptake in adipocytes on re-testing of purified compounds (3T3-L1 adipocytes [1]): can increase NBDG uptake; also recorded: promote NBDG uptake in adipocytes
- effect of GLUT inhibitors (4,6-EDG, cytochalasin B) on compound-induced NBDG uptake (3T3-L1 adipocytes [1]): sensitive to exo- and endofacial inhibitors of GLUT
- induction of apoptosis (3T3-L1 adipocytes [2]): induced apoptosis
- induction of cell death (trypan blue exclusion) (3T3-L1 adipocytes [3]): induced cell death

Compound: C=C1[C@@H](C)[C@H]2[C@H](Cc3ccccc3)NC(=O)[C@]23OC(=O)/C=C/[C@H](O)CCC[C@@H](C)C/C=C/[C@H]3[C@@H]1O [cytochalasin B, reference compound]
- effect on insulin-stimulated 6-NBDG uptake (3T3-L1 adipocytes [1]; 100 nM insulin): reduced insulin-stimulated uptake of 6-NBDG; also recorded: inhibited

Compound: O=S(=O)([O-])[O-].[Zn+2] [zinc sulfate, reference compound]
- effect of GLUT inhibitors (4,6-EDG, cytochalasin B) on compound-induced NBDG uptake (3T3-L1 adipocytes [1]): reduced NBDG uptake

Compound: CC1OC[C@H]2O[C@H](O)[C@H](O)[C@@H](O)[C@@H]2O1 (stereo partly drawn) [4,6-EDG, 4,6-ethylidine-D-glucose, reference compound]
- effect on insulin-stimulated 6-NBDG uptake (3T3-L1 adipocytes [1]; 100 nM insulin): reduced insulin-stimulated uptake of 6-NBDG; also recorded: inhibited
